Source: US7932405B2, “Halogenated ester derivatives of coumarins for the treatment of coagulation disorders” (Aryx Therapeutics, Inc., priority 2007, dated 2011)
Marks after values point to notes of the source that are not given here.

Columns and labels:
[1] = molecular target: T1, vitamin K epoxide reductase (VKER) (Bos taurus, UniProt Q6B4J2); assay: Vitamin K epoxide reductase inhibition, bovine liver microsomal preparation, residual vitamin K epoxide by HPLC; type: biochemical
T1 construct: Microsomes were prepared from fresh cow liver; from tissue; host or cells: fresh cow liver microsomes
T1 sequence (Q6B4J2 1-163): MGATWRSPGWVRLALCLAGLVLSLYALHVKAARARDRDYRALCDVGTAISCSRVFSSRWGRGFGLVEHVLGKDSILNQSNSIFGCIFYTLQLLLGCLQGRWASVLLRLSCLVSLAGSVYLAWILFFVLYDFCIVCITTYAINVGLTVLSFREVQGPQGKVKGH
Protocol: Compounds of the subject invention were tested against vitamin K epoxide reductase.
Briefly: increasing concentrations of compounds were incubated in the presence of vitamin K epoxide and in the presence of a bovine microsomal preparation containing vitamin K epoxide reductase. The amount of residual vitamin K epoxide at the end of the incubation period was directly proportional to the inhibitory activity of the test compounds on the enzyme.
Microsomes were prepared from fresh cow liver according to the method described in: “Purification of gamma-glutamyl carboxylase from bovine liver. Wu S M, Mutucumarana V P, and Stafford D W. Methods in Enzymology (1997) 282:346-57.”
Serial dilutions of test compounds were prepared as follows: Dissolve the test compounds to a final dilution of 10 mM either in water or in DMSO (if not soluble in water). From this mother solution, prepare 2 further dilutions by diluting it with water: one 200 μM solution and one 5 mM solution. Prepare a series of tubes as follows:
Remove 15 μL from tube 4 and add to tube 5, vortex, then remove 15 μL from tube 5 and add to tube 6, vortex, etc. . . . until 15 μL is added to tube 9. Vortex and then remove 15 μL from tube 9.
Prepare another set of 4 tubes and add 30 μL of water.
A reaction mixture consisting of 600 μL buffer (2.5M NaCl, 0.125M MOPS, pH7.5), 520 μL water, and 150 μL of 10% CHAPS was prepared. The tubes were kept on ice for 5 minutes and then 500 μL of microsomal preparation was added. The mixture was mixed by vortex and kept on ice for 10 min for sufficient solubilization. To this was added 150 μL of vitamin K epoxide solution (1.5 mg/ml in isopropanol), then again vortexed and kept on ice for 5 minutes. An aliquot (70 μL) of this reaction mix was added to each one of the series of tubes prepared as above and containing serial dilutions of test compounds in 30 μL of water. The tubes were then vortexed and then kept on ice for 5 min. To 2 of the water-containing tubes was added 500 μL of a stop reagent consisting of 5 volumes of 50 mM AgNO3 and 5 volumes of isopropanol. These 2 tubes were used to measure a zero value.
The tubes were placed in a 30 C mixer for 3 min and 5 μL of 100 mM DTT solution in water was added. The tubes were then vortexed and kept in the dark without shaking for another 20 min, at the end of which 500 μL of the stop reagent was added.
To each tube was then added 600 μL of a 100 μg/ml solution of vitamin E in hexane, the tubes were capped and then vortexed for 1 minute. The tubes were then centrifuged for 5 min at 5,000 g, and the upper layer (the hexane layer) was transferred to a series of fresh tubes. The hexane was evaporated at room temperature in the dark using a speedvac, and the resulting pellet was resuspended in 100 μL of methanol.
The amount of vitamin K epoxide in each sample was then measured using a HPLC determination method. Residual vitamin K epoxide was then plotted against test compound concentration.

[2] = Metabolism in pooled human liver microsomes with NADPH (CYP450 + esterase); type: in vitro ADME; conditions: human, pooled human liver microsomes with NADPH regenerating system, pH 7.4, 2 μM final concentration, read-out: CYP + Esterase Est T½
[3] = system: pooled human liver microsomes (CYP450 + esterase); assay: as above; type: in vitro ADME; conditions: 2 μM final concentration
[4] = Metabolism in pooled human liver microsomes without NADPH (esterase alone); type: in vitro ADME; conditions: human, pooled human liver microsomes without NADPH, pH 7.4, 2 μM final concentration, read-out: Esterase Est T½
Protocol: (§1) Pooled human liver microsomes were used as an in vitro model of drug metabolism. These microsomes contain both esterase and CYP450 drug metabolizing enzymes. Pooled human microsomes were suspended in Tris buffer (50 mM, pH 7.4) at a final concentration of 1 mg/mL of microsomal protein. Test compounds dissolved in acetonitrile:DMSO (1:99) were added to a final concentration of 2 μM. Incubations were performed at 37° C. and samples (50 μL) were collected after 5, 15, 30, 60 and 90 minutes and then were precipitated by the addition of 100 μL of acetonitrile containing Internal Standard and centrifuged at 14,000 rpm for 15 min at 4° C. Samples were analyzed by LC/MS/MS for the content of parent drug.
(§2) To determine the role of CYP450 in the metabolism, incubations were run either with or without an NADPH regenerating system−NADPH is an obligate cofactor for CYP450 enzymes. Incubations that included NADPH cofactor represent the total metabolism by CYP450+ esterase. […] Thus, when the relative decline of parent drug observed is greater in the presence of NADPH, the metabolism is CYP450-mediated. When the relative decline is equivalent in the presence and absence of cofactor the metabolism is esterase mediated.

[5] = system: pooled human liver microsomes (esterase); assay: as above; type: in vitro ADME; conditions: 2 μM final concentration
Protocol: as §1, §2

[6] = Control incubation without microsomes (buffer stability); type: physicochemical; conditions: 2 μM final concentration, no microsomes; for half-life at 2 μM: buffer without microsomes (control incubation), pH 7.4, read-out: Buffer Est T½
Protocol: as §1, with “Pooled human microsomes were suspended in Tris buffer (50 mM, pH 7.4) at a final concentration of 1 mg/mL of microsomal protein.” left out
All of the compounds were stable.

human IKr (hERG) = molecular target: T2, human IKr (hERG) (Homo sapiens, UniProt Q12809); assay: Whole-cell patch-clamp recording of IKr in stably transfected HEK-293 cells expressing the hERG gene; type: cell-based
T2 construct: expressed in transfected cells; host or cells: HEK-293, stably transfected
T2 sequence (Q12809 whole entry): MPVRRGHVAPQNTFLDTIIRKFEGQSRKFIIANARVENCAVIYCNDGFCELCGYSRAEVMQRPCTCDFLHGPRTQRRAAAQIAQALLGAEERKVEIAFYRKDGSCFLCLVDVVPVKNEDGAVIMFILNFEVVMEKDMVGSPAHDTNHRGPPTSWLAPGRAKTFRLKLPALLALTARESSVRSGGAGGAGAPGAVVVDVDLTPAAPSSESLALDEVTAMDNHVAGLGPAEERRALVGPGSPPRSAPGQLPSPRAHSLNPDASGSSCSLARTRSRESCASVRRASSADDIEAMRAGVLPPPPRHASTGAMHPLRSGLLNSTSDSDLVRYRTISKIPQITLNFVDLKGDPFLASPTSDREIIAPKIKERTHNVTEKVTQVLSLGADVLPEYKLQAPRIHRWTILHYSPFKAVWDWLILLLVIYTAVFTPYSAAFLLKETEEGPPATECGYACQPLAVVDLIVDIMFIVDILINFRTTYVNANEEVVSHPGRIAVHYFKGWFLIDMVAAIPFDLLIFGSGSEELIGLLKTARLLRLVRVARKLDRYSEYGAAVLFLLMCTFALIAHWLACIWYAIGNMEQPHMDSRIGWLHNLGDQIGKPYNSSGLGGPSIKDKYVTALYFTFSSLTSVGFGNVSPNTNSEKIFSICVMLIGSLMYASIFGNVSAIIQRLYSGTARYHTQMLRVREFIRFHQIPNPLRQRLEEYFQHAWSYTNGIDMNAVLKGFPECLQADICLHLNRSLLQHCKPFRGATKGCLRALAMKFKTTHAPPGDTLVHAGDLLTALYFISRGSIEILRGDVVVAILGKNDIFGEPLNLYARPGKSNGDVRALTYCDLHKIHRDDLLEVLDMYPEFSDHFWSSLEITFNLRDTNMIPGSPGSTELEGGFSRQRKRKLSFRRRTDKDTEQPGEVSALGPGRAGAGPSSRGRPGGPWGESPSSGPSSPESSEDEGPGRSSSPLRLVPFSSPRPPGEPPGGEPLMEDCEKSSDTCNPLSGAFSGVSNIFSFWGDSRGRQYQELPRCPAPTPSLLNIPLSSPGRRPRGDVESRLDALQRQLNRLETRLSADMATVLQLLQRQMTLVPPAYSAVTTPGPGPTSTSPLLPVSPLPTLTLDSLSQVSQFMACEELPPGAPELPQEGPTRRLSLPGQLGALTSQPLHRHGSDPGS
Protocol: Electrophysiological recordings of IKr in stably transfected HEK-293 cells were made in the whole cell configuration of the patch-clamp technique (Hamill et al, 1981) using an Axopatch 200B amplifier (Axon Instruments, Foster City, Calif.). Patch microelectrodes were pulled from 1.5-mm borosilicate glass tubing using a two-stage vertical pipette puller (Narishige, East Meadow, N.Y.). […] HEK-293 cells were plated in 35 mm plastic cell and tissue culture dishes for 2-3 days. For application of drug-containing solutions to cells, the SF-77B system (Warner Instrument Corp, Hamden, Conn.) was used. Solution exchanges were completed within 20 ms. Current data were digitized online using a DigiData 1200A analog-to-digital board (Axon Instruments) and stored on the hard disc of an IBM compatible Pentium computer (GP7-600 MHz, Gateway Computer, Sioux City, N. Dak.). […]
The effect of warfarin, 2,2,2-trifluoro-1-methyl-1-(trifluoromethyl)ethyl 4-[(4-hydroxy-2-oxo-2H-chromen-3-yl)methyl]benzoate and its corresponding acid metabolite, 4-[(4-hydroxy-2-oxo-2H-chromen-3-yl)methyl]benzoic acid on IKr was studied in a stably transfected HEK-293 cell line using a two-pulse protocol. […] Tail IKr amplitude was measured as the difference between the peak current and baseline current at −50 mV in control and in the presence of ATI-compounds when steady-state block was obtained.

[7] = Broad cellular and biochemical receptor screening assay; conditions: concentrations up to 10 μM

Row | Structure (SMILES) | IC50 [1] [µM] | half-life at 2 μM [2] [h] | CYP + Esterase % Stability at 90 min [3] | Esterase % Stability at 90 min [5] [%] | Buffer % Stability at 90 min [6] [%] | half-life at 2 μM [6] [h] | CYP + Esterase Est T½ [3] [h] | Esterase Est T½ [5] [h] | half-life at 2 μM [4] [h] | IC50 (human IKr (hERG)) [µM] | activity in broad cellular and biochemical receptor screening [7]
1 | CC(OC(=O)c1ccc(Cc2c(O)c3ccccc3oc2=O)cc1)(C(F)(F)F)C(F)(F)F [2,2,2-trifluoro-1-methyl-1-(trifluoromethyl)ethyl 4-[(4-hydroxy-2-oxo-2H-chromen-3-yl)methyl]benzoate] | – | – | – | – | – | – | – | – | – | > 100 | Nor did either compound exhibit significant activity
2 | O=C(O)c1ccc(Cc2c(O)c3ccccc3oc2=O)cc1 [4-[(4-hydroxy-2-oxo-2H-chromen-3-yl)methyl]benzoic acid] | – | – | – | – | – | – | – | – | – | > 1000 | Nor did either compound exhibit significant activity
3 | CC(=O)CC(c1ccccc1)c1c(O)c2ccccc2oc1=O (stereo not shown) [Warfarin, reference compound] | 3 ± 0.8 | – | – | – | – | – | – | – | – | – | –
4 | CC(OC(=O)c1ccc(Cc2c(O)c3ccccc3oc2=O)cc1)(C(F)(F)F)C(F)(F)F [drawing 30] | 5.07 | > 1.5 | 90%** (>90 min) | 96 | 92 | > 1.5 | – | – | > 1.5 | – | –

Further lines, with some results ahead:

Row | IC50 [1] [µM] | half-life at 2 μM [2] [h] | CYP + Esterase % Stability at 90 min [3] | Esterase % Stability at 90 min [5] [%] | Buffer % Stability at 90 min [6] [%] | half-life at 2 μM [6] [h] | CYP + Esterase Est T½ [3] [h] | Esterase Est T½ [5] [h] | Structure (SMILES) | half-life at 2 μM [4] [h] | IC50 (human IKr (hERG)) [µM] | activity in broad cellular and biochemical receptor screening [7]
5 | 3.38 | > 1.5 | 69% | 70 | 108 | > 1.5 | – | – | CC(OC(=O)c1ccc(Cc2c(O)c3ccccc3oc2=O)cc1)C(F)(F)C(F)(F)F (racemic) | > 1.5 | – | –
6 | > 30 | > 1.5 | 101% | – | 99 | > 1.5 | – | – | O=C(O)c1ccc(Cc2c(O)c3ccccc3oc2=O)cc1 [drawing 28] | – | – | –
7 | 4.02 | – | 70% | 86 | 123 | > 1.5 | > 1.5 | > 1.5 | CC(OC(=O)c1ccc(Cc2c(O)c3ccccc3oc2=O)cc1)C(F)(F)C(F)(F)F (stereo not shown) [drawing 31] | – | – | –
8 | 4.15 | – | 24% | 27 | 113 | – | ~0.5 | ~0.5 | CC(OC(=O)c1ccc(Cc2c(O)c3ccccc3oc2=O)cc1)C(F)(F)C(F)(F)F (stereo not shown) [drawing 32] | – | – | –
